Data published in patent US11332472B2, “Substituted piperidines as inhibitors of ubiquitin specific protease 7” (LES LABORATOIRES SERVIER, priority 2017, dated 2022).

How the values were obtained:
[1] = test system: MM 1S multiple myeloma tumour cell line; assay: In vitro cytotoxicity, MTT assay, MM1S cells; type: cell-based; conditions: Homo sapiens, MM1.S, 96 hours exposure
Experimental: The cytotoxicity studies were evaluated by MTT assay and carried out on MM 1S multiple myeloma or Z138 mantle cell lymphoma tumour cell lines. The cells are distributed onto microplates and exposed to the test compounds for 96 hours. The cell viability is then quantified by a colorimetric assay, the Microculture Tetrazolium Assay (Carmichael et. al., Cancer Res. […], 47, 936-942).

USP7 = target: T1, USP7 (Homo sapiens, UniProt Q93009, C315A); assay: Inhibition of USP7 by Fluorescence Intensity (FLINT) readings, Ubiquitin-Rhodamine-110 substrate; type: biochemical; conditions: 0.25 nM His-His-USP7 (aa208-560, [C315A]); compound 60 minutes at 30° C.; 500 nM Ubiquitin-Rhodamine substrate; 11-point curves
T1 construct: 0.25 nM His-His-USP7 (aa208-560, [C315A]) was incubated with compound; His-His (N)
In short: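 His-His-USP7 (aa208-560, C315A) at 0.25 nM was preincubated with compound for 60 min at 30 °C in 100 mM Bicine pH 8.0, 0.01% Triton X-100, 1 mM TCEP, 10% DMSO. 500 nM ubiquitin-rhodamine-110 was then added, with fluorescence (Ex 485/Em 535 nm) read every 3 min for 21 min. IC50 came from kinetic-rate inhibition, 11-point curves, 4-parameter fit.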

T1 sequence (Q93009 208-560 C315A): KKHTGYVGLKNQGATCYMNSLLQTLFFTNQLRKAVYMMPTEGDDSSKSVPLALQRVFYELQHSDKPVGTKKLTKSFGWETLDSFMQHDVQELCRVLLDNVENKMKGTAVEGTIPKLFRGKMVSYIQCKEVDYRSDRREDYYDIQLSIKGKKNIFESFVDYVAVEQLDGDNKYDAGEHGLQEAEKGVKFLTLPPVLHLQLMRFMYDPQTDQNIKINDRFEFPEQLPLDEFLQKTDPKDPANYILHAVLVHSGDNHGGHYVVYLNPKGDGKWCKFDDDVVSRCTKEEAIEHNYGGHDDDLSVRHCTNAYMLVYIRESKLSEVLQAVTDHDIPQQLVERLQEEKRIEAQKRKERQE

Compound | IC50 (USP7) | IC50 [1]
O=C([C@@H]1CCCC(F)(F)[C@H]1c1ccccc1)N1CCC(O)(Cn2cnc3c(ccn3-c3ccccc3)c2=O)CC1 (relative stereo) [Example 52, 3-[[1-[trans-3,3-difluoro-2-phenyl-cyclohexanecarbonyl]-4-hydroxy-4-piperidyl]methyl]-7-phenyl-pyrrolo[2,3-d]pyrimidin-4-one] | 71.8 nM | 100 nM
O=C([C@@H]1CCCC[C@H]1c1ccccc1)N1CCC(O)(Cn2cnc3[nH]ccc3c2=O)CC1 (relative stereo) [Example 92, 3-[[4-hydroxy-1-(trans-2-phenylcyclohexanecarbonyl)-4-piperidyl]methyl]-7H-pyrrolo[2,3-d]pyrimidin-4-one] | 124 nM | 523 nM
COc1ccc(-n2ccc3c(=O)n(CC4(O)CCN(C(=O)[C@@H]5CCCO[C@H]5c5ccccc5)CC4)cnc32)cc1 (relative stereo) [Example 24, 3-[[4-hydroxy-1-[trans-2-phenyltetrahydropyran-3-carbonyl]-4-piperidyl]methyl]-7-(4-methoxyphenyl)pyrrolo[2,3-d]pyrimidin-4-one] | 217 nM | 146 nM
O=C([C@@H]1CCCC[C@H]1n1cccc1)N1CCC(O)(Cn2cnc3c(ccn3-c3ccccc3)c2=O)CC1 (racemic) [Example 12, 3-[[4-hydroxy-1-[trans-2-pyrrol-1-ylcyclohexanecarbonyl]-4-piperidyl]methyl]-7-phenyl-pyrrolo[2,3-d]pyrimidin-4-one] | 71.1 nM | 34.5 nM
O=C([C@@H]1CC(F)(F)CC[C@H]1c1ccccc1)N1CCC(O)(Cn2cnc3c(ccn3-c3ccccc3)c2=O)CC1 (single isomer, unassigned) [Example 32, 3-[[1-[trans-5,5-difluoro-2-phenyl-cyclohexanecarbonyl]-4-hydroxy-4-piperidyl]methyl]-7-phenyl-pyrrolo[2,3-d]pyrimidin-4-one] | 35.3 nM | 15.8 nM
O=C([C@@H]1CCCC[C@H]1c1ccccc1)N1CCC(O)(Cn2cnc3c(nnn3-c3ccccc3)c2=O)CC1 (relative stereo) [Example 18, 6-[[4-hydroxy-1-(trans-2-phenylcyclohexanecarbonyl)-4-piperidyl]methyl]-3-phenyl-triazolo[4,5-d]pyrimidin-7-one] | 50.6 nM | 636 nM
COc1ccc(-n2ccc3c(=O)n(CC4(O)CCN(C(=O)[C@@H]5CCC(F)(F)C[C@H]5c5ccoc5)CC4)cnc32)cc1 (single isomer, unassigned) [Example 75, 3-[[1-[trans-4,4-difluoro-2-(3-furyl)cyclohexanecarbonyl]-4-hydroxy-4-piperidyl]methyl]-7-(4-methoxyphenyl)pyrrolo[2,3-d]pyrimidin-4-one] | 59.1 nM | 3.29 nM
CN1C(=O)CC[C@@H](C(=O)N2CCC(O)(Cn3cnc4c(ccn4C)c3=O)CC2)[C@@H]1c1ccccc1 (single isomer, unassigned) [Example 38, 3-[[4-hydroxy-1-[trans-1-methyl-6-oxo-2-phenyl-piperidine-3-carbonyl]-4-piperidyl]methyl]-7-methyl-pyrrolo[2,3-d]pyrimidin-4-one] | 399 nM | –
COc1ccc(-n2ccc3c(=O)n(CC4(O)CCN(C(=O)C5C(C)=CCCC5c5cccs5)CC4)cnc32)cc1 (single isomer, unassigned) [Example 60, 3-[[4-hydroxy-1-[trans-2-methy-6-(2-thienyl)cyclohex-2-ene-1-carbonyl]-4-piperidyl]methyl]-7-(4-methoxyphenyl)pyrrolo[2,3-d]pyrimidin-4-one] | 725 nM | –
O=C(Nc1ccc2ncn(CC3(O)CCN(C(=O)[C@@H]4CCCC[C@H]4c4ccccc4)CC3)c(=O)c2n1)C1CCCC1O (relative stereo) [Example 103, 2-hydroxy-N-[3-[[4-hydroxy-1-(trans-2-phenylcyclohexanecarbonyl)-4-piperidyl]methyl]4-oxo-pyrido[3,2-d]pyrimidin-6-yl]cyclopentanecarboxamide] | 125 nM | –
O=C([C@@H]1CCCC[C@H]1c1ccccc1)N1CCC(O)(Cn2cnc3c(ccn3Cc3cccnc3)c2=O)CC1 (relative stereo) [Example 109, 3-[[4-hydroxy-1-(trans-2-phenylcyclohexanecarbonyl)-4-piperidyl]methyl]-7-(3-pyridylmethyl)pyrrolo[2,3-d]pyrimidin-4-one] | 1010 nM | –
Cc1cc([C@@H]2CC(F)(F)CC[C@H]2C(=O)N2CCC(O)(Cn3cnc4c(-c5ccccc5)scc4c3=O)CC2)cs1 (relative stereo) [Example 90, 3-[[1-[trans-4,4-difluoro-2-(S-methyl-3-thienyl)cyclohexanecarbonyl]-4-hydroxy-4-piperidyl]methyl]-7-phenyl-thieno[3,4-d]pyrimidin-4-one] | 2920 nM | –
O=C([C@@H]1CC(F)(F)CC[C@H]1c1ccccc1)N1CCC(O)(Cn2cnc3c(-c4ccccc4)scc3c2=O)CC1 (single isomer, unassigned) [Example 78, 3-[[1-[trans-5,5-difluoro-2-phenyl-cyclohexanecarbonyl]-4-hydroxy-4-piperidyl]methyl]-7-phenyl-thieno[3,4-d]pyrimidin-4-one] | 10300 nM | –
O=C([C@@H]1CCCC[C@H]1n1ccnc1)N1CCC(O)(Cn2cnc3c(ccn3-c3ccccc3)c2=O)CC1 (single isomer, unassigned) [Example 50, 3-[[4-hydroxy-1-[trans-2-imidazol-1-ylcyclohexanecarbonyl]-4-piperidyl]methyl]-7-phenyl-pyrrolo[2,3-d]pyrimidin-4-one] | 570 nM | –

These reach a lower IC50 (USP7). Values come first.

IC50 (USP7) | Compound | IC50 [1]
31.6 nM | O=C([C@@H]1CCCC[C@H]1c1ccccc1)N1CCC(O)(Cn2cnc3c(ccn3-c3ccc(Cl)cc3)c2=O)CC1 (relative stereo) [Example 22, 7-(4-chlorophenyl)-3-[[4-hydroxy-1-(trans-2-phenylcyclohexanecarbonyl)-4-piperidyl]methyl]pyrrolo[2,3-d]pyrimidin-4-one] | 9.88 nM
31.5 nM | CN1C(=O)CC[C@@H](C(=O)N2CCC(O)(Cn3cnc4c(ccn4-c4ccccc4)c3=O)CC2)[C@@H]1c1ccccc1 (single isomer, unassigned) [Example 27, 3-[[4-hydroxy-1-[trans-1-methyl-6-oxo-2-phenyl-piperidine-3-carbonyl]-4-piperidyl]methyl]-7-phenyl-pyrrolo[2,3-d]pyrimidin-4-one] | 46.5 nM
30.9 nM | COc1ccc(-n2ccc3c(=O)n(CC4(O)CCN(C(=O)C5CCC(=O)N(C)C5c5ccccc5)CC4)cnc32)cc1 (single isomer, unassigned) [Example 117, 3-{[4-hydroxy-1-trans-1-methyl-6-oxo-2-phenylpiperidine-3-carbonyl)piperidin-4-yl]methyl}-7-(4-methoxyphenyl)-3,7-dihydro-4H-pyrrolo[2,3-d]pyrimidin-4-one] | 26.4 nM
29.3 nM | O=C([C@@H]1CCCC[C@H]1c1ccccc1)N1CCC(O)(Cn2cnc3c(ncn3-c3ccccc3)c2=O)CC1 (relative stereo) [Example 20, 1-[[4-hydroxy-1-(trans-2-phenylcyclohexanecarbonyl)-4-piperidyl]methyl]-9-phenyl-purin-6-one] | 210 nM
26.9 nM | COc1ccc(-n2ccc3c(=O)n(CC4(O)CCN(C(=O)[C@@H]5CCCC[C@H]5c5ccccc5)CC4)cnc32)cc1 (relative stereo) [Example 21, 3-[[4-hydroxy-1-(trans-2-phenylcyclohexanecarbonyl) 4-piperidyl]methyl]-7-(4-methoxyphenyl)pyrrolo[2,3-d]pyrimidin-4-one] | 3.4 nM
26.1 nM | COc1ccc(-n2ccc3c(=O)n(CC4(O)CCN(C(=O)[C@@H]5CCCC[C@H]5n5cccc5)CC4)cnc32)cc1 (racemic) [Example 15] | 8.76 nM
17.2 nM | O=C([C@@H]1CCCC[C@H]1c1ccccc1)N1CCC(O)(Cn2cnc3c(ccn3-c3ccsc3)c2=O)CC1 (relative stereo) [Example 23, 3-[[4-hydroxy-1-(trans-2-phenylcyclohexanecarbonyl)-4-piperidyl]methyl]-7-(3-thienyl)pyrrolo[2,3-d]pyrimidin-4-one] | 70.1 nM
15.8 nM | O=C(Cc1ccc2c(c1)NC(=O)C2)Nc1ccc2ncn(CC3(O)CCN(C(=O)[C@@H]4CCCC[C@H]4c4ccccc4)CC3)c(=O)c2n1 (relative stereo) [Example 102, N-[3-[[4-hydroxy-1-(trans-2-phenylcyclohexanecarbonyl)-4-piperidyl]methyl]-4-oxo-pyrido[3,2-d]pyrimidin-6-yl]-2-(2-oxoindolin-6-yl)acetamide] | 5390 nM
13 nM | COc1ccc(-n2ccc3c(=O)n(CC4(O)CCN(C(=O)[C@@H]5CCCC[C@H]5c5ccc(F)cc5)CC4)cnc32)cc1 (single isomer, unassigned) [Example 41, 3-[[1-[trans-2-(4-fluorophenyl)cyclohexanecarbonyl]-4-hydroxy-4-piperidyl]methyl]-7-(4-methoxyphenyl)pyrrolo[2,3-d]pyrimidin-4-one] | 7.22 nM
9.81 nM | O=C([C@@H]1CCCC[C@H]1c1ccc(F)cc1)N1CCC(O)(Cn2cnc3c(ccn3-c3ccccc3)c2=O)CC1 (single isomer, unassigned) [Example 43, 3-[[1-[trans-2-(4-fluorophenyl)cyclohexanecarbonyl]-4-hydroxy-4-piperidyl]methyl]-7-phenyl-pyrrolo[2,3-d]pyrimidin-4-one] | 32.3 nM
